Laboratory results published in ChEMBL document CHEMBL1136955, “Compelling P1 substituent affect on metalloprotease binding profile enables the design of a novel cyclohexyl core scaffold with excellent MMP selectivity and HER-2 sheddase inhibition” (Bioorg Med Chem Lett, 2009).

What was measured:
[1] = molecular target: Matrix metalloproteinase-9 (Homo sapiens, UniProt P14780); assay: Inhibition of human MMP9
Stromelysin-1 = Stromelysin-1 (Homo sapiens, UniProt P08254); assay: Inhibition of human MMP3
[2] = molecular target: 72 kDa type IV collagenase (Homo sapiens, UniProt P08253); assay: Inhibition of human MMP2
[3] = molecular target: T1, Disintegrin and metalloproteinase domain-containing protein 10 (Homo sapiens, UniProt O14672); assay: Inhibition of human recombinant ADAM10
T1 sequence (O14672 whole entry): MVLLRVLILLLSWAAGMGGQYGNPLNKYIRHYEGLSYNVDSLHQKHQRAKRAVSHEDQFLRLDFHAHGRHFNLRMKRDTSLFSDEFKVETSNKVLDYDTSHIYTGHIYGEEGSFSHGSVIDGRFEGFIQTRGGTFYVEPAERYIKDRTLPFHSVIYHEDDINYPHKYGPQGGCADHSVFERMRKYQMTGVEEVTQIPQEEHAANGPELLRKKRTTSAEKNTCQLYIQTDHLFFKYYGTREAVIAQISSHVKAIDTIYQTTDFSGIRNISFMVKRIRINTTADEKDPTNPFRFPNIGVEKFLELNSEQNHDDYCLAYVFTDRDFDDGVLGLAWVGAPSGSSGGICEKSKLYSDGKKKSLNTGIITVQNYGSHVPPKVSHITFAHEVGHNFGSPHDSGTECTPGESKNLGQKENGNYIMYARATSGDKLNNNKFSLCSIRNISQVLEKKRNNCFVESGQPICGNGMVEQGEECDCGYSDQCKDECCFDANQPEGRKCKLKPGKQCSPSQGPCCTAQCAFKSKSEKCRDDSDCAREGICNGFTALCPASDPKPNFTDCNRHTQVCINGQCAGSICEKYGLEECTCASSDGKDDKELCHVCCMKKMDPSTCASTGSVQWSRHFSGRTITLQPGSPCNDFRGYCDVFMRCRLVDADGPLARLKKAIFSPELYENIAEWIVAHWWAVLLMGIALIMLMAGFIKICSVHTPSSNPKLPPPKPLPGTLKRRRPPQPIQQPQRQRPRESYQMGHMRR

Interstitial collagenase = molecular target: T2, Interstitial collagenase (Homo sapiens, UniProt P03956); assay: Inhibition of human MMP1
T2 sequence (P03956 whole entry): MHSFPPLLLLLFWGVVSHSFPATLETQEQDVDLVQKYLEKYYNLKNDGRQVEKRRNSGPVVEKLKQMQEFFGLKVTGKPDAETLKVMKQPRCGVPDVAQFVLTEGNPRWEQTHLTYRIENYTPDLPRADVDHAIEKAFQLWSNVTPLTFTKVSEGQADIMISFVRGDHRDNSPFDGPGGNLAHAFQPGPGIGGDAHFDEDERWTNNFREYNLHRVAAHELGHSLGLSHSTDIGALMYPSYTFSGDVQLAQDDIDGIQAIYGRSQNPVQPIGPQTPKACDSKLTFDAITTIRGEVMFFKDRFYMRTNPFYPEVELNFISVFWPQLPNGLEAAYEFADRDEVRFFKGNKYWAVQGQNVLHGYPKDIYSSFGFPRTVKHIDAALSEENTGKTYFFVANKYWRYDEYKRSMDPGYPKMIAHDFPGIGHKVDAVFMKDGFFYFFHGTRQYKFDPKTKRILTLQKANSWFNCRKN

Homo sapiens = organism: Homo sapiens; assay: Selectivity ratio of IC50 for human MMP2 to IC50 for human ADAM10

Chain of 72 kDa type IV collagenase (P08253 whole entry, the tested form may be a part): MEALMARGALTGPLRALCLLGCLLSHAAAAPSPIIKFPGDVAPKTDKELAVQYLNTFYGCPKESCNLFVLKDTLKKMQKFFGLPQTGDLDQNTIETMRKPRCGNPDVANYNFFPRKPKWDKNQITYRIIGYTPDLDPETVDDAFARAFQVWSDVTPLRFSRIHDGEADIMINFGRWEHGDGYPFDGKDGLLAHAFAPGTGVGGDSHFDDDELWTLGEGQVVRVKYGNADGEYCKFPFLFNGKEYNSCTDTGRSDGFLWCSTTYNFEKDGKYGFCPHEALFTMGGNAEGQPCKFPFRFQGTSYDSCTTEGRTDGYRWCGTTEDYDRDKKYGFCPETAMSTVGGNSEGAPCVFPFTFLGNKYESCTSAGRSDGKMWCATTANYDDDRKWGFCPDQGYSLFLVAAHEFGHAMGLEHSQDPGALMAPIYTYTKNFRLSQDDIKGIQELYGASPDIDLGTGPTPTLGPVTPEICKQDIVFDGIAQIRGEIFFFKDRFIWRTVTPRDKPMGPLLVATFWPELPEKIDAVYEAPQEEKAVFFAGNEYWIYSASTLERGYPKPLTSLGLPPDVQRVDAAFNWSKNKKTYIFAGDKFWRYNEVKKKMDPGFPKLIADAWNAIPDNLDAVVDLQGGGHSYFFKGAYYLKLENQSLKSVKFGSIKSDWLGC
Chain of Matrix metalloproteinase-9 (P14780 whole entry): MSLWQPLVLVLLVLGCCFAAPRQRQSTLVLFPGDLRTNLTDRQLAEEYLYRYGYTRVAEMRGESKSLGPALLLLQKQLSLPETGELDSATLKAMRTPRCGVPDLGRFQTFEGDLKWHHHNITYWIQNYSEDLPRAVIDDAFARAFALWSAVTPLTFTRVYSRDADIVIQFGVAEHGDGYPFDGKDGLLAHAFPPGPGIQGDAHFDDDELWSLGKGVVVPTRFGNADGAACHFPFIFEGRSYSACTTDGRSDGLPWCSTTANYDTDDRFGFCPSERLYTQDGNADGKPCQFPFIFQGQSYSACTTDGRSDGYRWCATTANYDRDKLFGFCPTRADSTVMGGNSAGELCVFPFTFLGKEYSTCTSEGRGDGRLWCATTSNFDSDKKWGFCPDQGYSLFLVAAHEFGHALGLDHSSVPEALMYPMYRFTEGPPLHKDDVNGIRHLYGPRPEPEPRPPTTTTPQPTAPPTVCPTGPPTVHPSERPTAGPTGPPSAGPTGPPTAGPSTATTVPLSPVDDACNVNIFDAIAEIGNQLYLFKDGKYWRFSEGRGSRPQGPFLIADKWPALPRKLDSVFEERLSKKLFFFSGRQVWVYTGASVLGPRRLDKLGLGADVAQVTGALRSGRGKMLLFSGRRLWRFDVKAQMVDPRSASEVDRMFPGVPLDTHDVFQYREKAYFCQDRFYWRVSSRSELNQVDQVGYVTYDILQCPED
Chain of Stromelysin-1 (P08254 whole entry): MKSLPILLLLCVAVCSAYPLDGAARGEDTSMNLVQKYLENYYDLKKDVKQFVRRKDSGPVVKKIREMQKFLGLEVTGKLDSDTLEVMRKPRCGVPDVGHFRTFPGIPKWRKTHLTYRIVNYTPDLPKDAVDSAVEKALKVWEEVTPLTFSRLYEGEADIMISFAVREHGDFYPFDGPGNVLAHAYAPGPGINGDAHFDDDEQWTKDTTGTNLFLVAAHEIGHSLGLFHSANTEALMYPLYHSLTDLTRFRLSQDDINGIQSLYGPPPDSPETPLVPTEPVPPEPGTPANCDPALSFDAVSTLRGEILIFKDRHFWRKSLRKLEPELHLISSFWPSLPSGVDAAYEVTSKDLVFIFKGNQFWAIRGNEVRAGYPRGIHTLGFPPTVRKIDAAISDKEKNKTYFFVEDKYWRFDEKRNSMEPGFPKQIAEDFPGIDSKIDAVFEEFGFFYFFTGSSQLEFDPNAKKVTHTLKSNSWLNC

## O=C(NO)[C@H]1CC2(CC2)CN[C@@H]1C(=O)N1CCC(c2ccccc2)C1 (some centres undefined)
[1]
  IC50: > 5000 nM
Stromelysin-1
  IC50: > 5 µM
[2]
  IC50: 998 nM

## O=C(NO)[C@H]1CCCC[C@@H]1C(=O)N1CCN(c2ccccc2)CC1
[3]
  IC50: 1540 nM
Interstitial collagenase
  IC50: > 5 µM
[2]
  IC50: 180 nM

## O=C(NO)[C@H]1C[C@@H](CC(=O)N2CCCCC2)CC[C@@H]1C(=O)N1CCN(c2ccccc2)CC1
[3]
  IC50: 15 nM
[1]
  IC50: 683 nM
Interstitial collagenase
  IC50: > 5 µM
Stromelysin-1
  IC50: > 5 µM
[2]
  IC50: 100 nM

## O=C(NO)[C@H]1C[C@H](CC(=O)N2CCCCC2)CC[C@@H]1C(=O)N1CCN(c2ccccc2)CC1
[2]
  IC50: 1090 nM

## O=C(NO)[C@H]1CC(CC(=O)N2CCOCC2)CC[C@@H]1C(=O)N1CCN(c2ccccc2)CC1 (some centres undefined)
[3]
  IC50: 83 nM
[2]
  IC50: 236 nM

## CC(C)c1cccc(C2CCN(C(=O)[C@H]3CC[C@H](CC(=O)N4CCCCC4)C[C@@H]3C(=O)NO)CC2)c1
[3]
  IC50: 21 nM
[1]
  IC50: > 5000 nM
Interstitial collagenase
  IC50: > 5 µM
Stromelysin-1
  IC50: > 5 µM
[2]
  IC50: > 5000 nM

## CC(C)c1cccc(C2CCN(C(=O)[C@H]3CC[C@@H](CC(=O)N4CCCCC4)C[C@@H]3C(=O)NO)CC2)c1
[3]
  IC50: 915 nM
[2]
  IC50: > 5000 nM

## O=C(CC1CN[C@H](C(=O)N2CCC(c3ccccc3)C2)[C@@H](C(=O)NO)C1)NCCCCCNC(=O)OCc1ccccc1 (mixture of isomers)
[3]
  IC50: 302 nM
[1]
  IC50: 1790 nM
Interstitial collagenase
  IC50: > 5 µM
Stromelysin-1
  IC50: 5 µM
[2]
  IC50: 1280 nM

## O=C(NO)[C@H]1CC(CC(=O)N2CCCC2)CN[C@@H]1C(=O)N1CCN(c2ccccc2)CC1 (mixture of isomers)
[3]
  IC50: 19 nM
[2]
  IC50: 8 nM

## NCCCCCNC(=O)CC1CN[C@H](C(=O)N2CCC(c3ccccc3)C2)[C@@H](C(=O)NO)C1 (mixture of isomers)
[3]
  IC50: 161 nM
[1]
  IC50: > 5000 nM
Interstitial collagenase
  IC50: > 5 µM
Stromelysin-1
  IC50: > 5 µM
[2]
  IC50: 1660 nM

## CN1CC(CC(=O)N2CCCC2)C[C@H](C(=O)NO)[C@H]1C(=O)N1CCN(c2ccccc2)CC1 (mixture of isomers)
[3]
  IC50: 167 nM
[2]
  IC50: 92 nM

## CN1CC(CC(=O)N2CCCCC2)C[C@H](C(=O)NO)[C@H]1C(=O)N1CCN(c2ccccc2)CC1 (mixture of isomers)
[3]
  IC50: 77 nM
[2]
  IC50: 81 nM

## O=C(NO)[C@H]1CC(CC(=O)N2CCCCC2)CC[C@@H]1C(=O)N1CCN(c2ccccc2)CC1 (mixture of isomers)
[1]
  IC50: 1880 nM
Interstitial collagenase
  IC50: > 5 µM
Stromelysin-1
  IC50: > 5 µM
[2]
  IC50: 321 nM

## O=C(NO)[C@H]1CC(CC(=O)N2CC[C@@H](O)C2)CC[C@@H]1C(=O)N1CCN(c2ccccc2)CC1 (mixture of isomers)
[3]
  IC50: 111 nM
[2]
  IC50: 156 nM

## CN1CCN(C(=O)CC2CC[C@H](C(=O)N3CCN(c4ccccc4)CC3)[C@@H](C(=O)NO)C2)CC1 (mixture of isomers)
[3]
  IC50: 30 nM
[1]
  IC50: 2500 nM
Interstitial collagenase
  IC50: > 5 µM
Stromelysin-1
  IC50: > 5 µM
[2]
  IC50: 68 nM

## O=C(NO)[C@H]1CC2(CC[C@@H]1C(=O)N1CCN(c3ccccc3)CC1)CC2 (mixture of isomers)
[3]
  IC50: 196 nM
Homo sapiens
  Ratio IC50: 2
[1]
  IC50: 577 nM
Interstitial collagenase
  IC50: > 5 µM
Stromelysin-1
  IC50: > 5 µM
[2]
  IC50: 106 nM

## O=C(NO)[C@H]1CC(CC(=O)N2CCCC2)CC[C@@H]1C(=O)N1CCN(c2ccccc2)CC1 (mixture of isomers)
[3]
  IC50: 64 nM
[1]
  IC50: 1440 nM
Interstitial collagenase
  IC50: > 5 µM
Stromelysin-1
  IC50: > 5 µM
[2]
  IC50: 271 nM
